From patent US7074824B2, “Pharmaceutical compositions containing beta-lapachone, or derivatives or analogs thereof, and methods of using same” (Arqule, Inc., priority 2001, dated 2006)
Converted amounts (≈) assume the structure as drawn. Like-named read-outs stand apart in the source and are kept apart here.

Experiments:
[1] = Solubility of β-lapachone in common solvent systems used for intravenous delivery; format: physicochemical
Excerpt: β-lapachone, as well as its derivatives and analogs thereof (also referred to herein as the “active compounds”), are described in Li, C. J. et al., J. Biol. Chem., 1993. These active compounds can be incorporated into pharmaceutical compositions suitable for parenteral administration. Such compositions typically comprise the active compound and a pharmaceutically acceptable carrier, excipient, diluent or adjuvant. However, the low solubility of β-lapachone in most pharmaceutically acceptable solvents has been an obstacle to the development of a suitable formulation for parenteral and topical administration, particularly intravenous and cutaneous administration, respectively. Table 1 illustrates the limited solubility of β-lapachone in common solvent systems used for intravenous delivery of drugs. […] To achieve this plasma concentration, an intravenous formulation must have a β-lapachone concentration approaching 10 mg/ml and be able to be diluted 5–×10× with sterile fluids for intravenous administration, such as saline or D5W.
Various pharmaceutically acceptable solvent systems known to solubilize hydrophobic drug substances were evaluated with β-lapachone. […] However, none of these systems could be diluted 5× with sterile saline without significant precipitation of the β-lapachone from solution. In addition, most of these co-solvents and surfactants have their own toxicity and tolerability issues that need to be managed during high dose drug administration.

[2] = Solubility of β-lapachone in aqueous HPBCD solutions (heated to 70° C., filtered, HPLC); format: physicochemical
Description: A β-lapachone/HPBCD solution was prepared without prior solubilization of the β-lapachone in ethanol solution. β-lapachone was combined with aqueous solutions of HPBCD in varying concentrations and the mixtures were heated to 70° C., then allowed to cool to room temperature. The cooled solutions were filtered (0.22μ), and the amount of the solubilized β-lapachone was measured by HPLC analysis.

A2780DDP = tested on: A2780DDP
Description: In testing β-lapachone against the cisplatin-resistant-cell lines, cells were exposed to β-lapachone solutions for 4 h. The cells were then rinsed and fresh medium was added. Cultures were observed daily for 10–20 days and then were fixed and stained. Colonies of greater than 30 cells were scored as survivors.

[3] = tested on: RPMI 8226 multiple myeloma cells; format: in vivo
Description: Chemicals. β-lapachone was synthesized and dissolved in 40% hydroxypropyl β-cyclodextrin at a concentration of 10 mg/mL and kept at room temperature in a dark container. Hydroxypropyl β-cyclodextrin was dissolved in distilled water at a concentration of 10 mg/mL and kept at room temperature. […]®, a basement membrane matrix was purchased from Becton Dickinson Labware (BD Biosciences, Two Oak Park Drive, Bedford, Mass.) and was dissolved in Dulbecco's modified Eagle's medium with 50 μg/mL Gentamycin and kept frozen at −20° C. […]® is extracted from the Engelbreth-Holm-Swarm mouse tumor, a tumor rich in extracellular matrix proteins. The major matrix components are laminin, collagen IV, entactin, and heparan sulfate proteoglycan (perlecan); the matrix also contains growth factors, matrix metalloproteinases (MMPs [collagenases]), and plasminogen activators, without any inhibitors of metalloproteinases (TIMPs). The […] matrix is a solution at 4° C. and gels at room temperature to form a three-dimensional reconstituted basement membrane. This model system closely mimics the structure, composition, physical properties, and functional characteristics of the basement membrane in vivo and provides a physiologically relevant environment for studies of cell morphology, biochemical function, migration or invasion, and gene expression. The frozen […]® matrix was thawed overnight at 4° C. before use.
Cell Cultures. RPMI8226 cells (a human multiple myeloma cell line) were provided Dr. William Dalton (Lee Moffit Cancer Center, Tampa, Fla.). They were maintained by frequent passages in RPMI 1640 (Cellgro®, Mediatech Inc., Herndon, Va.) containing 10% Fetal Bovine serum (FBS) (GibcoBRL, Life Technologies, Grand Island, N.Y.) supplemented with 2×10^−3M L-Glutamine, 100 units/mL penicillin (Pen), and 100 μg/mL streptomycin (Cellgro®D, Mediatech Inc., Herndon, Va.) in 162 cm^2 cell culture flasks (Costar®, Corning Incorporated, Corning, N.Y.). The exponentially growing cell lines were CD138+, CD38+/CD45RA−, EBV negative, and pathogen free.
Mice. Forty male 6 week old Bg-Nu-Xid mice (deficient in T, B, and NK cells) were obtained from the FCRDC, Frederick, Bethesda, Md. and housed at the Redstone animal facility at DFCI. These mice have 3 separate mutations—Beige (Bg) autosomal recessive mutation associated with impaired chemotaxis and motility of macrophages & deficiency of NK cells; the nude (nu) autosomal recessive mutation associated with depletion of T cells due to thymic agenesis; and the X-linked immune defect (xid) which produces functional defects of B lymphocytes. The animals were raised in a barrier facility in cages with saw dust bedding and laminar air at 19–22° C. Rodent food and sterile drinking water were supplied ad libitum. The mice were quarantined to rule out development of any disease. One mouse died during transport, and 5 others were lost because of dehydration (n=2), probable infection (n=2) and excessive bleeding due to trauma (n=1). After 1 week, enrofloxacin (a quinolone antibiotic) was added in drinking water of all mice. All procedures involving animals were approved by and performed according to guidelines of the Institutional Animal Care and Use Committee of the Dana Farber Cancer Institute (DFCI).
Histologic Analysis. The mice were sacrificed when the tumor reached 20 mm in their largest diameter or they became moribund, as per the policy of the Animal Protocol Committee at Dana Farber Cancer Institute. […]

CC1(C)CCC2=C(O1)c1ccccc1C(=O)C2=O [β-lapachone]
solubility ([1]; EtOH 76% diluted 5X in 0.9% saline, aqueous with cosolvent or surfactant or cyclodextrin, EtOH 76%, diluted in 0.9% saline, read-out: β-lapachone Solubility, 5X dilution): 102 µg/mL (≈ 0.423 mM) | solubility ([1]; EtOH 76%, organic solvent or mixture, read-out: β-lapachone Solubility, Undiluted): 10700 µg/mL (≈ 44 mM) | solubility ([1]; PEG 400, organic solvent or mixture, read-out: β-lapachone Solubility, Undiluted): 11700 µg/mL (≈ 48.2 mM) | solubility ([1]; PEG 400 diluted 5X in 0.9% saline, aqueous with cosolvent or surfactant or cyclodextrin, PEG 400, diluted in 0.9% saline, read-out: β-lapachone Solubility, 5X dilution): 140 µg/mL (≈ 0.578 mM) | solubility ([1]; Poloxamer 20% diluted 5X in 0.9% saline, aqueous with cosolvent or surfactant or cyclodextrin, Poloxamer 20%, diluted in 0.9% saline, read-out: β-lapachone Solubility, 5X dilution): 33.1 µg/mL (≈ 0.137 mM) | solubility ([1]; Poloxamer 20%, aqueous with cosolvent or surfactant or cyclodextrin, read-out: β-lapachone Solubility, Undiluted): 2040 µg/mL (≈ 8.4 mM) | solubility ([1]; Povidone K12 20% diluted 5X in 0.9% saline, aqueous with cosolvent or surfactant or cyclodextrin, Povidone K12 20%, diluted in 0.9% saline, read-out: β-lapachone Solubility, 5X dilution): 31.3 µg/mL (≈ 0.129 mM) | solubility ([1]; Povidone K12 20%, aqueous with cosolvent or surfactant or cyclodextrin, read-out: β-lapachone Solubility, Undiluted): 1860 µg/mL (≈ 7.68 mM) | solubility ([1]; Povidone K17 20% diluted 5X in 0.9% saline, aqueous with cosolvent or surfactant or cyclodextrin, Povidone K17 20%, diluted in 0.9% saline, read-out: β-lapachone Solubility, 5X dilution): 31.2 µg/mL (≈ 0.129 mM) | solubility ([1]; Povidone K17 20%, aqueous with cosolvent or surfactant or cyclodextrin, read-out: β-lapachone Solubility, Undiluted): 1820 µg/mL (≈ 7.53 mM) | solubility ([1]; Propylene Glycol diluted 5X in 0.9% saline, aqueous with cosolvent or surfactant or cyclodextrin, Propylene Glycol, diluted in 0.9% saline, read-out: β-lapachone Solubility, 5X dilution): 95 µg/mL (≈ 0.392 mM) | solubility ([1]; Propylene Glycol, organic solvent or mixture, read-out: β-lapachone Solubility, Undiluted): 8780 µg/mL (≈ 36.2 mM) | solubility ([1]; Trappsol 20% diluted 5X in 0.9% saline, aqueous with cosolvent or surfactant or cyclodextrin, Trappsol 20%, diluted in 0.9% saline, read-out: β-lapachone Solubility, 5X dilution): 30 µg/mL (≈ 0.124 mM) | solubility ([1]; Trappsol 20%, aqueous with cosolvent or surfactant or cyclodextrin, read-out: β-lapachone Solubility, Undiluted): 1460 µg/mL (≈ 6.05 mM) | solubility ([1]; Tween 80, aqueous with cosolvent or surfactant or cyclodextrin, read-out: β-lapachone Solubility, Undiluted): 11200 µg/mL (≈ 46.1 mM) | solubility ([1]; Tween 80 diluted 5X in 0.9% saline, aqueous with cosolvent or surfactant or cyclodextrin, Tween 80, diluted in 0.9% saline, read-out: β-lapachone Solubility, 5X dilution): 1660 µg/mL (≈ 6.83 mM) | solubility ([1]; organic solvent or mixture, highest of all solvent systems, undiluted, read-out: maximum solubility in the solvents listed in Table 1): ~12000 µg/mL (≈ 49.5 mM) | β-lapachone (highest conc.) ([2]; 10% HPBCD in water): 3.1 mg/mL | β-lapachone (highest conc.) ([2]; 20% HPBCD in water): 7.4 mg/mL | β-lapachone (highest conc.) ([2]; 30% HPBCD in water): 10.8 mg/mL | β-lapachone (highest conc.) ([2]; 40% HPBCD in water): 15.8 mg/mL | cytotoxicity as single agent, resistant versus parent line (A2780DDP): equally cytotoxic | tumor volume versus control group ([3]; 50 mg/kg i.p. every alternate day in 40% HPBCD, by day 11, p=0.007): statistically significant decrease in tumor volume | survival compared to controls ([3]; day 5, 7, 9, 11, 13, 15 and 17, FIG. 16): survival was greater | MM cell apoptosis in tumors (mean±SD) ([3]; histopathology, light microscopy, p=0.001 versus control): 41.1%±12.7 | kidney histology ([3]; mouse, in vivo): mild tubular vacuolization | microscopic toxicity on liver, heart, lung, brain, and spleen ([3]; mouse, in vivo): no microscopic evidence of any toxicity
